These results are taken from US20210255184A1, “Biosensor Device and Methods” (The New Zealand Institute for Plant and Food Research …, priority 2018, published 2021).

The experiment has as its target T1, Or10a/Orco (Drosophila melanogaster, UniProt Q9VYZ1).
T1 construct: his-tag; made in house; host or cells: baculovirus-infected Sf9 cells
T1 sequence (Q9VYZ1 1-406): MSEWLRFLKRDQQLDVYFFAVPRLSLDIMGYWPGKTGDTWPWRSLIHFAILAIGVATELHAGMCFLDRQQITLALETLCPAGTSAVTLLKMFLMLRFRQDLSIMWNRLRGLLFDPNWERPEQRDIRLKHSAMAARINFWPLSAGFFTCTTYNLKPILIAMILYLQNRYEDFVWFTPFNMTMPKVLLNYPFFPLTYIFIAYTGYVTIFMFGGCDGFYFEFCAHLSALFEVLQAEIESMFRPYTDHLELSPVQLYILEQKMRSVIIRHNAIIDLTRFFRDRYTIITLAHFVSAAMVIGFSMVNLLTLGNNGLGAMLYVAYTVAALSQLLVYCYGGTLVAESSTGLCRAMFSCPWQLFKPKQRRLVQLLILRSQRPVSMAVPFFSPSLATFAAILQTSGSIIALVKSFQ
T1 sequence (Q9VNB5 1-486 partner): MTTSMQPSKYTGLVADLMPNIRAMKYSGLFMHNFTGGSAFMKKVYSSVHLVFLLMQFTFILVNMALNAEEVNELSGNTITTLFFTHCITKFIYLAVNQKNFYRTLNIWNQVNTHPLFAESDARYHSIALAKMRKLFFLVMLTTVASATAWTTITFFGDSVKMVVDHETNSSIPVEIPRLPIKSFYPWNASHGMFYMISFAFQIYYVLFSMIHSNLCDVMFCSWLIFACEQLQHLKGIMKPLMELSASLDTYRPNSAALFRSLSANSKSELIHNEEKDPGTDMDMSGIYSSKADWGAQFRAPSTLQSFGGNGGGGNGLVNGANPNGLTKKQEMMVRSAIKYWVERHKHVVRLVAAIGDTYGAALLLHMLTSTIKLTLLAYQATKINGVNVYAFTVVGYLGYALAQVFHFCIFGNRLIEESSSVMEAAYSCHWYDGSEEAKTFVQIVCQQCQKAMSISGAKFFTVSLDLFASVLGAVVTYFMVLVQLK
Put plainly: EIS sensor, Or10a/Orco liposomes on gold electrode. The class given is biochemical. As for the experimental part:
Prior to their use, liposomes were defrosted on ice and then destabilized by incubating with 0.2% CHAPS for 15 min at room temperature. Then 200 μg of purified odorant receptor^28 was added to 1 mg of liposomes and rotated at 10 rpm for 1 h at room temperature. Excess detergent was removed by four additions of 25 mg of Bio-Beads SM-2 (Bio-Rad, USA) and incubation at 4° C. for 30 min, 2 h, overnight and a further 2 h respectively. The Bio-Beads were removed after each incubation period. The OrX or OrX/Orco integrated liposomes were pelleted by centrifugation at 100,000 g for 1 h, and were resuspended in 500 μL of rehydration buffer. Integration of OrXs and Orco into liposomes was assessed by density gradient ultracentrifugation (DGU) using Accudenz (Accurate Chemical & Scientific Corporation, USA). The integrated liposomes were brought to 40% Accudenz by the addition of an equal volume of 80% Accudenz solution, placed at the bottom of an ultra-centrifugation tube, and overlaid with 30% Accudenz solution, and DGU buffer (25 mM HEPES pH 7.5, 100 mM NaCl, 10% glycerol). The sample was then centrifuged at 100,000 g for 4 h at 4° C. Liposomes will float to the top of the gradient after Accudenz DGU due to their low density.
2 mM MHA was prepared by dissolving 1.36 μl of MHA in 5 ml ethanol (AR grade). The cleaned electrodes were immersed into MHA solution and incubated overnight. The next day, all the electrodes were washed with ethanol and deionised water thoroughly in order to remove the unreacted acid. A 2:1 mol:mol ratio of EDC:NHS (100 mM EDC, 50 mM NHS) was prepared in 2 ml PBS (pH=6.5) solution. Then, the electrodes were covered in 100 μl of this solution at 28° C. for an hour to activate the carboxylic (COOH) groups of the MHA.
PBS solution was prepared by immersing one tablet of PBS in 200 ml of milli-Q water (according to manufacturers instructions) and filtered using 0.2-μm syringe filter. The pH of the prepared buffer solution was measured with a pH meter. OrX liposomes or OrX/Orco liposomes were diluted 100 fold in PBS buffer solution (pH=7.4) and the COOH-activated electrodes were incubated in that buffer solution at room temperature for one hour. Then, the electrodes were washed extensively with PBS buffer solution to wash out any unbound liposomes.
PBS (pH=7.4) was used as an electrolyte to conduct electrochemical measurements. PBS buffer was degassed for about 30 minutes prior to electrochemical measurements. […] OR immobilized electrodes were incubated in relevant odorant solution for ˜30 minutes each and washed gently with PBS before EIS measurements. […]

By EC50 is commonly meant the midpoint of the concentration-response curve. Compound `COC(=O)c1ccccc1O` [methyl salicylate] returned a limit of detection (EIS dose response, ligand 1 aM to 100 μM) of 1 fM. The concentration giving a half-maximal response (EC50) (Table 1, approximate) was about 1 pM. Where the note is “Table 1, * estimated visually from dose response graph”, the Sensitivity limit is listed as ~10^−15 M*. Moreover, the “Detection Range” value (Table 3) is given as 10^−15-10^−7 M.
